Experiments:
Experiment in all cases: relative viability (nuclei count vs DMSO), 5 days (fraction); higher = more cells survive
Quizartinib + Dasatinib = compound: CC(C)(C)c1cc(NC(=O)Nc2ccc(-c3cn4c(n3)sc3cc(OCCN5CCOCC5)ccc34)cc2)no1 [Quizartinib] + Cc1nc(Nc2ncc(C(=O)Nc3c(C)cccc3Cl)s2)cc(N2CCN(CCO)CC2)n1 [Dasatinib] (partner 0.075 µM)
Procedure, shortened: (§1)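 The day after seeding in 1536-well plates, lung cancer cell lines were treated by pin tool with a single drug, or with a fixed anchor-drug dose together with five library-drug doses (not always all listed) in √10 steps. After 5 days, a combined fix-and-stain solution (final 0.05% Triton X-100, 1% formaldehyde, 1 ug/ml Hoechst) was added. Nuclei counted on 4× images gave relative viability as treated counts over vehicle counts, reported as the median of duplicate plates.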

YM155 + Foretinib = compound: COCC[n+]1c2c(n(Cc3cnccn3)c1C)C(=O)c1ccccc1C2=O [YM155] + COc1cc2c(Oc3ccc(NC(=O)C4(C(=O)Nc5ccc(F)cc5)CC4)cc3F)ccnc2cc1OCCCN1CCOCC1 [Foretinib] (partner 0.25 µM)
Procedure, shortened: as §1

Quizartinib + Alpelisib = compound: CC(C)(C)c1cc(NC(=O)Nc2ccc(-c3cn4c(n3)sc3cc(OCCN5CCOCC5)ccc34)cc2)no1 [Quizartinib] + Cc1nc(NC(=O)N2CCC[C@H]2C(N)=O)sc1-c1ccnc(C(C)(C)C(F)(F)F)c1 [Alpelisib] (partner 2 µM)
Procedure, shortened: as §1

YM155 + Crizotinib = compound: COCC[n+]1c2c(n(Cc3cnccn3)c1C)C(=O)c1ccccc1C2=O [YM155] + C[C@@H](Oc1cc(-c2cnn(C3CCNCC3)c2)cnc1N)c1c(Cl)ccc(F)c1Cl [Crizotinib] (partner 1 µM)
Procedure, shortened: as §1

| Cell Line | relative viability (Quizartinib + Dasatinib; first compound 0.001 µM) | relative viability (Quizartinib + Dasatinib; first compound 0.003162 µM) | relative viability (Quizartinib + Dasatinib; first compound 0.01 µM) | relative viability (Quizartinib + Dasatinib; first compound 0.03162 µM) | relative viability (Quizartinib + Dasatinib; first compound 0.1 µM) | relative viability (YM155 + Foretinib; first compound 0.002 µM) | relative viability (YM155 + Foretinib; first compound 0.006325 µM) | relative viability (YM155 + Foretinib; first compound 0.02 µM) | relative viability (YM155 + Foretinib; first compound 0.06325 µM) | relative viability (Quizartinib + Alpelisib; first compound 0.001 µM) | relative viability (Quizartinib + Alpelisib; first compound 0.003162 µM) | relative viability (Quizartinib + Alpelisib; first compound 0.01 µM) | relative viability (Quizartinib + Alpelisib; first compound 0.03162 µM) | relative viability (Quizartinib + Alpelisib; first compound 0.1 µM) | relative viability (YM155 + Crizotinib; first compound 0.002 µM) | relative viability (YM155 + Crizotinib; first compound 0.006325 µM) | relative viability (YM155 + Crizotinib; first compound 0.02 µM) | relative viability (YM155 + Crizotinib; first compound 0.06325 µM) |
| --- | --- | --- | --- | --- | --- | --- | --- | --- | --- | --- | --- | --- | --- | --- | --- | --- | --- | --- |
| NCI-H520 | 0.169 | 0.192 | 0.244 | 0.198 | 0.171 | 0.662 | 0.671 | 0.68 | 0.831 | 0.792 | 0.768 | 0.929 | 0.837 | 0.597 | 0.755 | 0.725 | 0.835 | 0.66 |
| NCI-H1355 | 0.719 | 0.762 | 0.684 | 0.747 | 0.66 | 0.932 | 1.02 | 1.06 | 0.964 | 0.814 | 0.927 | 0.812 | 0.865 | 0.827 | 0.988 | 1.11 | 1.03 | 1.01 |
| HCC-366 | 0.531 | 0.548 | 0.575 | 0.612 | 0.657 | 0.924 | 0.899 | 0.951 | 1.11 | 0.348 | 0.31 | 0.448 | 0.404 | 0.358 | 0.519 | 0.478 | 0.612 | 0.401 |
| NCI-H1563 | 0.523 | 0.505 | 0.458 | 0.468 | 0.493 | 0.89 | 0.935 | 1.09 | 1.02 | 0.893 | 0.871 | 0.945 | – | 0.826 | 0.915 | 0.802 | 0.838 | 0.886 |
| NCI-H1915 | 0.344 | 0.329 | 0.262 | 0.303 | 0.324 | 1.05 | 1.08 | 1.08 | 0.963 | 1.03 | 1.01 | 1.06 | 1.11 | 1.16 | 0.898 | 0.916 | 0.922 | 0.849 |
| HARA | – | 0.231 | 0.252 | 0.215 | 0.268 | 0.892 | 1.03 | 0.94 | 1.04 | 0.485 | 0.78 | 0.893 | 0.791 | 0.749 | 1.04 | 1.13 | 1.09 | 0.995 |
| NCI-H358 | 0.136 | 0.188 | 0.164 | 0.167 | 0.144 | 0.653 | 0.699 | 0.736 | 0.37 | 0.693 | 0.89 | 0.815 | – | 0.753 | 0.538 | 0.594 | 0.592 | 0.214 |
| PC-3 [JPC-3] | 0.925 | 0.967 | 1.09 | 1.01 | 1.03 | 1.04 | 1.08 | 1.11 | 1.02 | 0.953 | 1.01 | 1.14 | 1.02 | 0.998 | 0.939 | 1.04 | 1.06 | 1.1 |
| LXF-289 | 0.218 | 0.21 | 0.29 | 0.254 | 0.29 | 1 | 1.01 | 1.02 | 0.97 | 0.992 | 0.999 | 1.1 | 1.01 | 0.947 | 0.812 | 0.787 | 0.867 | 0.684 |
| NCI-H2170 | 0.721 | 0.422 | 0.591 | 0.625 | 0.497 | 1 | 0.983 | 1 | 1.09 | 0.769 | 0.683 | 0.956 | 0.787 | 0.809 | 1.13 | 1.18 | 1.24 | 1.18 |
| NCI-H2126 | 0.454 | 0.603 | 0.655 | – | 0.625 | 0.893 | 1.07 | 1.25 | 1.29 | 0.76 | 0.726 | 0.757 | 0.774 | 0.753 | 0.988 | 0.967 | 1.07 | 1.04 |
| NCI-H1755 | 0.389 | 0.367 | 0.409 | 0.429 | 0.404 | 0.853 | 0.934 | 0.884 | 0.976 | 0.798 | 0.851 | 0.975 | 0.917 | 0.923 | 0.882 | 0.833 | 0.973 | 0.859 |
| HCC-827 | 0.315 | 0.396 | 0.325 | 0.274 | 0.281 | 1.03 | 1.09 | 1.07 | 1.06 | 0.952 | 0.858 | 0.965 | 0.976 | 0.987 | 0.866 | 0.968 | 0.918 | 0.89 |
| NCI-H838 | 0.272 | 0.329 | 0.276 | 0.296 | 0.257 | 1.04 | 1.02 | 1.09 | 0.479 | 0.876 | 0.942 | 0.958 | 0.968 | 0.593 | 0.825 | 0.909 | 0.911 | 0.297 |
| NCI-H3122 | 0.92 | 0.565 | 1 | 0.721 | 0.838 | 0.923 | 1 | 0.927 | 0.933 | 0.567 | 0.693 | 1.01 | 0.831 | 0.651 | 0.269 | 0.239 | 0.257 | 0.272 |
| HCC-78 | 0.354 | 0.53 | 0.308 | 0.294 | 0.346 | 0.53 | 0.51 | 0.543 | 0.586 | 0.343 | 0.33 | 0.393 | 0.315 | 0.342 | 0.328 | 0.322 | 0.325 | 0.371 |
| NCI-H322M | 0.208 | 0.255 | 0.27 | 0.265 | 0.266 | 1.02 | 1.08 | 0.931 | 0.981 | 0.707 | 0.779 | 0.799 | 0.758 | 0.787 | 0.822 | 0.906 | 0.949 | 0.578 |
| NCI-H1975 | 0.415 | 0.305 | 0.367 | 0.297 | 0.325 | 0.978 | 0.907 | 0.933 | 0.308 | 0.638 | 0.521 | 0.655 | 0.545 | 0.585 | 0.941 | 1.03 | 0.995 | 0.633 |
| NCI-H2023 | 0.428 | 0.507 | 0.634 | – | 0.613 | 0.999 | 0.662 | 0.767 | 0.368 | 0.562 | 0.467 | 0.665 | 0.323 | 0.575 | 0.719 | 0.734 | 0.717 | 0.361 |
| COR-L 105 | 0.385 | 0.408 | 0.413 | 0.381 | 0.283 | 0.994 | 1.02 | 0.848 | 0.733 | 0.751 | 0.898 | 1.12 | 0.527 | 1.05 | 0.907 | 0.807 | 0.591 | 0.385 |
| NCI-H23 | – | 0.733 | 0.696 | 0.712 | 0.853 | 0.643 | 0.718 | 0.959 | 0.785 | – | 0.556 | 0.679 | 0.645 | 0.687 | 0.527 | 0.607 | 0.47 | 0.234 |
| NCI-H441 | 0.617 | 0.571 | 0.765 | – | 0.771 | 0.859 | 0.636 | 0.992 | 0.43 | 0.656 | 0.541 | 0.885 | 0.733 | 0.779 | 0.676 | 0.623 | 0.694 | 0.509 |

From the supplement of paper PMC10307832
